Assays:
CD34+ cells = experiment: Ex vivo expansion of purified CD34+ cells in liquid culture: cell enumeration and FACS of subsets; assay type: cell-based, human; details: for density of CD34+CD38− cells, fold higher than untreated control / density of CD34+ Lin− progenitor cells, fold higher than untreated control: with IL-3; for density of CD34+CD38− cells, fold higher than untreated control: FIG. 6b; for density of CD34+ Lin− progenitor cells, fold higher than untreated control: FIG. 6c
Protocol: Sample collection and processing: Samples were obtained from umbilical human cord blood and processed within 12 hours. The blood cells were mixed with 3% Gelatin (Gigma, St. Louis, Mo.) and allowed to sediment for 30 minutes to remove most red blood cells. The leukocyte-rich fraction was harvested, layered on Ficoll-Hypaque (density 1.077 gram/ml; Sigma) and centrifuged at 400 g for 30 minutes at room temperature. The mononuclear cells in the interface layer were then collected, washed three times in phosphate-buffered saline (PBS; Biological Industries), and re-suspended in PBS solution which contains 1% bovine serum albumin (BSA; Sigma). The cells were then incubated at 4° C. for 30 minutes with murine monoclonal anti CD34^+ antibody (0.5 μg/10^6 mononuclear cells) and were thereafter isolated using two cycles of immuno-magnetic separation using the miniMACS CD34^+ Progenitor Cell Isolation Kit (Miltenyi-Biotec, Auburn, Calif.) according to the manufacturer's recommendations. The purity of the CD34^+ cells obtained ranged between 95% and 98%, based on Flow Cytometry evaluation (see below). Ex vivo expansion of progenitor cells: Enriched CD34^+ cell fractions were cultures in 24-well Costar Cell Culture Clusters (Corning Inc., Corning, N.Y.) or in Culture Bags (American Fluoroseal Corp.) with alpha minimal essential medium supplemented with 10% fetal bovine serum (FBS, Biological Industries), at about 1-3×10^4 cells/ml medium. The media were further supplemented with the following human recombinant cytokines (all obtained from Perpo Tech, Inc., Rocky Hill, N.J.): Thrombopoietin (TPO), 50 ng/ml; interleukin 6 (IL-6), 50 ng/ml; FLT-3 ligand, 50 ng/ml; and IL-3, 20 ng/ml. The cultures were incubated at 37° C. in an atmosphere of 5% CO2 in air with extra humidity. At weekly intervals cell cultures were semi-depopulated and supplemented with fresh medium containing the cytokines. Following different incubation periods, the cells were harvested, stained with trypan blue and enumerated. The total cell counts, numbers of CD34^+ cells and subsets thereof, and the number of colony-forming cells (CFU) are presented herein as cumulative numbers, with the assumption that the cultures had not been passaged, namely, the numbers of cells per ml were multiplied by the number of passages performed. Surface antigen analysis: At different time intervals, the cultured cells were harvested, washed with a PBS solution containing 1% BSA and 0.1% sodium azide (Sigma), and stained, at 4° C. for 60 minutes, with FITC-labeled anti CD45 monoclonal antibody and either PE-labeled anti CD34 (HPCA-2) monoclonal or PE-labeled control mouse Ig (all from Immunoquality Products, the Netherlands). The cells were then washed with the same PBS solution and were analyzed by a flow cytometer, as described hereinafter. Flow cytometry analysis: Cells were analyzed and sorted using FACS caliber flow cytometer (Becton-Dickinson, Immunofluorometry systems, Mountain View, Calif.). Cells were passed at a rate of 1,000 cells/second through a 70 μm nozzle, using a saline sheath fluid. A 488 nm argon laser beam at 250 mW served as the light source for excitation. Fluorescence emission of ten thousand cells was measured using a logarithmic amplification and analyzed using CellQuest software. Determination of the density of stem and progenitor subset populations following expansion: Following an incubation period, the CD34^+ cells were re-selected using miniMACS Miltenyi kit. The purity of the positive fraction of selected CD34^+ cells was confirmed by FACS analysis as well as by cell morphology analysis. The density of CD34^+ cells, in proportion (percentage) to total cells, was determined directly via FACS analysis. The densities of CD34^+ subset populations were determined from the purified CD34^+ fraction. Re-selected CD34^+ cells were stained with lineage specific antigens followed by FACS analysis to determine the percentage of the subset populations within the total number of CD34^+ cells. […]

mononuclear cells (MNC) = experiment: Colony-forming cells (CFUs) from mixed cells (MNC) culture; assay type: cell-based, human; details: FIG. 18
Protocol: Self-renewal potential evaluations: The self-renewal potential of stem cells was determined in vitro by long-term colony formation. Cells were washed and seeded in a semi-solid methylcellulose medium supplemented with 2 IU/ml erythropoietin (Eprex, Cilage AG Int., Switzerland), stem cell factor and IL-3, both at 20 ng/ml (Perpo Tech), and G-CSF and GM-CSF, both at 10 ng/ml (Perpo Tech). The resulting colonies were scored after two weeks of incubation at 37° C. in a humidified atmosphere of 5% CO2 in air. Colonies were classified as blast, mixed, erythroid, myeloid, and megakaryocytic, according to their cellular composition.
Ex vivo expansion of progenitor cells: The non-purified mononuclear cells (MNC), obtained as described hereinabove, were seeded in Culture Bags (American Fluoroseal Corp.), with alpha minimal essential medium supplemented with 10% fetal bovine serum (FBS, Biological Industries), at a concentration of about 10^6 cells/ml. The purified CD34^+ cells were similarly seeded in the Culture Bags, at a concentration of […]. The media were supplemented with TEPA chelator and/or with the following human recombinant cytokines (all obtained from Perpo Tech, Inc., Rocky Hill, N.J.): Thrombopoietin (TPO), 50 ng/ml; interleukin 6 (IL-6), 50 ng/ml; FLT-3 ligand, 50 ng/ml and a stem cell factor (SCF), 50 ng/ml; occasionally SCF was replaced by IL-3, 20 ng/ml. […]

platelets = experiment: In vivo recovery of platelets after gamma-irradiation; set-up: species or system mice (BALB/C X C57B1/6/F1); details: single treatment, 30 μM; irradiated mice
Protocol: In this experiment, ten mice (BALB/C X C57B1/6/F1) were gamma-irradiated (700 cGy) so as to mimic an irradiation therapy situation that destroys platelets. One day after irradiation five (out of ten) mice were administered with 30 μM of Cu-TEPA, while the other five mice were non-treated. The platelet levels in all mice were enumerated one week after irradiation. […] The results of this experiment illustrate that a copper chelate can effectively enhance the recovery of hematopoietic cells in subjects exposed to irradiation treatment.

## NCCNCCNCCNCCN [TEPA chelator, tetraethylenepentamine]
CD34+ cells; three weeks, 5 μM, FIG. 12b
  density of CD34+ CD38− subset cells vs untreated or TEPA-Cu treatment: substantially increased
CD34+ cells; three weeks, 5 μM, FIG. 12c
  density of CD34+ Lin− subset cells vs untreated or TEPA-Cu treatment: substantially increased
CD34+ cells; two and three weeks, 5 μM, FIG. 13b
  density of CD34+CD38− cells vs untreated or TEPA-Cu treatment: substantially higher
CD34+ cells; two and three weeks, 5 μM, FIG. 13c
  density of CD34+ Lin− cells vs untreated or TEPA-Cu treatment: substantially higher
CD34+ cells; two weeks culture, 5 μM, FIGS. 11a-b
  density of CD34+ cells vs untreated control: slightly decreased
Mononuclear cells (MNC); after 2 weeks
  number of CD34+ CFUs: non-detectable
Mononuclear cells (MNC); after 10 weeks
  number of CD34+ CFUs: 3.2×10^7 cells/ml

## NCCNCCNCCNCCN.[Cl-].[Cl-].[Cu+2] [TEPA-Cu chelate, tetraethylenepentamine-copper chelate]
CD34+ cells; 20 μM, two weeks
  density of CD34+CD38− cells, fold higher than untreated control: 5 fold
  density of CD34+ Lin− progenitor cells, fold higher than untreated control: 3 fold
CD34+ cells; 40 μM, two weeks
  density of CD34+CD38− cells, fold higher than untreated control: 15 fold
  density of CD34+ Lin− progenitor cells, fold higher than untreated control: 5 fold
CD34+ cells; 50 μM, two weeks
  density of CD34+CD38− cells, fold higher than untreated control: 15 fold
  density of CD34+ Lin− progenitor cells, fold higher than untreated control: 4 fold
CD34+ cells; 2 and 3 weeks, 30 μM or 40 μM, FIG. 5a
  number of CD34+ cells vs untreated (cytokines only) culture: remained almost unchanged
CD34+ cells; 3 weeks, 30 μM or 40 μM, FIG. 5b
  number of CD34+CD38− cells, fold higher than untreated control: 6-7 fold
CD34+ cells; 3 weeks, 30 μM or 40 μM, FIG. 5c
  number of CD34+ Lin− cells, fold higher than untreated control: 4-6.5 fold
CD34+ cells; three weeks, 40 μM, TPO, FLT-3, IL-6, SCF, untreated 40 fold, FIG. 4a
  density of CD34+ stem cells, expansion: 50 fold
CD34+ cells; three weeks, 40 μM, untreated 5 fold, FIG. 4b
  density of CD34+CD38− progenitor cells, expansion: 250 fold
CD34+ cells; three weeks, 40 μM, untreated 10 fold, FIG. 4c
  density of CD34+ Lin− progenitor cells, expansion: 110 fold
CD34+ cells; three weeks, 50 μM, FIG. 8a
  more total cells as compared with the untreated control: ca. 25%
CD34+ cells; three weeks, 50 μM, FIG. 8c
  density of CD34+ CD38− subset cells vs untreated control: substantially higher
CD34+ cells; three weeks, 50 μM, FIG. 8d
  density of CD34+ Lin− subset cells vs untreated control: substantially higher
CD34+ cells; two weeks culture, 40 μM, FIGS. 11a-b
  CD34+ cell expansion vs untreated control: did not significantly affect
CD34+ cells; two weeks, 40 μM, FIG. 7a
  density of CD34+CD61+ progenitor cells, fold vs untreated control: ca. 2 fold
CD34+ cells; two weeks, 40 μM, FIG. 7b
  density of CD34+CD41+ progenitor cells, fold vs untreated control: ~3 fold
CD34+ cells; two weeks, 20, 40 and 50 μM, TPO, FLT-3, IL-6, IL-3, FIG. 6a
  density of CD34+ stem cells, fold higher than untreated control: ca. 1.5 fold
platelets
  recovery of platelets vs non-treated control: significantly accelerated

— patent US7655225B2, “Methods of expanding stem and progenitor cells and expanded cell populations obtained thereby” (Gamida Cell, Ltd., priority 2002, dated 2010)
